Laboratory results taken from patent US9857359B2, “Methods for determining drug efficacy using cereblon-associated proteins” (CELGENE CORPORATION, priority 2012, dated 2018).

How the values were obtained:
Helios = target: T1, Helios (Homo sapiens, UniProt Q9UKS7); experiment: SimpleWestern of normal human CD19+ B cells, Helios; format: cell-based; conditions: various concentrations
T1 construct: endogenous in cells; host or cells: normal human CD19+ B cells
Description: (§1) Human B cells were isolated from 3 donors of whole bloods from the New Jersey Blood Center using B cell isolation kits from StemCell Technologies. IKZF family proteins were quantified using the automated capillary-based SimpleWestern System Sally (ProteinSimple). 100 ng of cell lysate protein or serial dilutions of recombinant proteins were mixed in reducing buffer with fluorescent Molecular Weight (MW) standards. After these samples were heated to 95° C. for 5 min, samples were loaded into each capillary tubes and proteins were separated based on MW sizes through stacking and separation matrices for 40 minutes at 250 Volts. Proteins were then immobilized to capillary walls using optimal photoactivated capture chemistry. Following protein immobilization, capillaries were incubated with a blocking reagent for 23 min and target proteins were probed with a specific primary antibody and horseradish peroxidase-conjugated anti-rabbit secondary antibody (ProteinSimple). A mixture of luminol and peroxide (ProteinSimple) was added, the resulting chemiluminescent signal was captured by a CCD camera, and the signal intensities were quantified and analyzed using Compass Software for Sally (ProteinSimple). The Ikaros family proteins in each sample were then calculated based on standard curve of human recombinant proteins. B-Actin was also used as an internal normalization control.

Ikaros = Ikaros levels in PBMC of 32 cynomolgus monkeys; format: in vivo; conditions: 0.04, 0.15, 0.75 mg/kg orally for 1 month
Description: 32 cynomolgus monkeys were randomly divided into 4 groups. Each group had 4 female and 4 male monkeys (n=8). The 3 groups of monkeys were orally administered with Compound B at the dose of 0.04, 0.15, 0.75 mg/kg respectively. The left group was used as the vehicle control (0.5% carboxymethyl cellulose: 0.25% Tween 80 in deionised H2O). Following dosing with drugs for 1 month, whole bloods from each monkey were sampled and PBMCs isolated. Ikaros levels in PBMCs were quantified using the automated capillary-based SimpleWestern System Sally (ProteinSimple) as previously mentioned. Analyses for multiple group comparisons were performed with 1-way analysis of variance, followed by the Dunnett post-test, using GraphPad Prism® version 5.01 (GraphPad Software, Inc., La Jolla, Calif., USA). A value of P<0.05 was considered significant in all analyses.

Aiolos [1] = experiment: Aiolos expression in CD20+ B cells and CD3+ T cells, percentage of DMSO control (FACS); format: cell-based; conditions: n=3
Description: The Fix buffer I was warmed up to 37° C. in an incubator or water bath prior to use. The Perm Buffer III was chilled in a −20° C. freezer prior to use. The cells were collected at the end of treatment with testing compounds. One volume of the pre-warmed Fix Buffer I was mixed with one volume of cell suspension. If the volume of the cell suspension is greater than 100 μL, the cells were spun and resuspended in 100 μL medium or PBS. The buffer and the cell suspension were mixed well and incubated in a 37° C. water bath for 10 min. The cells were spun down at 250×g for 10 min and the supernatant was aspirated. The cells were washed once with BD Stain Buffer. The pellet was spun and the supernatant was removed. The cells were vortexed to be loosened, and permeabilized by slowly adding cold Perm Buffer III while vortexing or mixing. Subsequently, the cells were incubated on ice for 30 min. The cells were then spun down and washed twice with Stain Buffer. The supernatant was spun and aspirated. The cells were resuspended in a small volume of Stain buffer (50 or 100 μL containing from 200,000 to 1 million cells). Anti-IKFZ3 antibody was added to the cell suspension at 1:1000 dilution and incubated for 45 min at 4° C. The cells were then spun down and washed once with stain buffer. Secondary antibody was added to the cells at 1:5000 dilution and incubated at room temperature for 20 min in the dark. […]

Aiolos [2] = experiment: SimpleWestern of normal human CD19+ B cells, Aiolos; format: cell-based; conditions: various concentrations
Description: as §1

Pegasus = target: T2, Pegasus (Homo sapiens, UniProt Q9H5V7); experiment: SimpleWestern of normal human CD19+ B cells, Pegasus; format: cell-based; conditions: various concentrations
T2 construct: endogenous in cells; host or cells: normal human CD19+ B cells
T2 sequence (Q9H5V7 1-419): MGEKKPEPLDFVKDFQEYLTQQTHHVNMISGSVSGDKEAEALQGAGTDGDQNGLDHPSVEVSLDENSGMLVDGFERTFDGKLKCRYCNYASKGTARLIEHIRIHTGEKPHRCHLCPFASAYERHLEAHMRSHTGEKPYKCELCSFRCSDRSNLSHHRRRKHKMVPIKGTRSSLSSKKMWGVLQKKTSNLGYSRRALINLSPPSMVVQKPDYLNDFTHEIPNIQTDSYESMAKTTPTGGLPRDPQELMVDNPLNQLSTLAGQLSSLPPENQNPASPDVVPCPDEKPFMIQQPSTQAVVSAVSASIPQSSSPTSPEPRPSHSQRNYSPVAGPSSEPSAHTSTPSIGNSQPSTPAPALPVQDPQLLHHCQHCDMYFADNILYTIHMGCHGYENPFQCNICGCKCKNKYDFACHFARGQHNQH
Description: as §1

DLBCL cell lines = experiment: Proliferation of DLBCL cell lines in vitro; format: cell-based
Aiolos [3] = experiment: Aiolos western blots in MM cells, T cells and B cells; format: cell-based, human
Description: U266 cells were obtained from ATCC (American Type Culture Collection, Manassas, Va., USA). DF15 cells were obtained from John Shaughnessy (University of Arkansas, Little Rock, Ark., USA). CD19+ B cells were purchased from HemaCare BioResearch Products (Van Nuys, Calif.). Cells were grown in RPMI-1640 medium (Cellgro, Manassas, Va.) containing 10% (V/V) heat-inactivated fetal bovine serum (Gibco, Grand Island, N.Y., USA) supplemented with 2 mM glutamine. […] Primary T cells were isolated from human leukocytes (Blood Center of New Jersey, East Orange, N.J.) by centrifugation through FICOLL® centrifugation medium following the ROSETETTESEP™ protocol (Stem Cell Technologies, Vancouver, Canada). […] Dexamethasone (Sigma, St. Louis, Mo.), melphalan (Sigma, St. Louis, Mo.) and bortezomib (Selleck Chemicals, Houston, Tex.) treated was for 6 hours. The final DMSO concentration is 0.1%. Cells were pre-treated with 10 μM MG-132 (Calbiochem Biochemicals, Billerica, Mass.) for 30 minutes prior to drug addition. Cells were harvested, washed in PBS and cell lysates separated on SDS-PAGE gels (Bio-Rad, Hercules, Calif.). Membranes were immunoblotted with anti-Aiolos (Santa Cruz Biotechnology, Dallas, Tex.), anti-Ikaros (Millipore, Billerica, Mass.) and anti-Actin (Sigma, St. Louis, Mo.; or LI-COR Biosciences, Lincoln, Nebr.) and secondary antibodies (LI-COR Biosciences, Lincoln, Nebr.). The blots were analyzed on ODESSEY® imager (LI-COR Biosciences, Lincoln, Nebr.).
Cell lysates were separated on a 10% TGX SDS-PAGE gel (Bio-Rad) and blotted for Aiolos (Santa Cruz, sc-10198), Ikaros (Millipore, ABD16) and Actin (Sigma, AC15).

T1 sequence (Q9UKS7 whole entry): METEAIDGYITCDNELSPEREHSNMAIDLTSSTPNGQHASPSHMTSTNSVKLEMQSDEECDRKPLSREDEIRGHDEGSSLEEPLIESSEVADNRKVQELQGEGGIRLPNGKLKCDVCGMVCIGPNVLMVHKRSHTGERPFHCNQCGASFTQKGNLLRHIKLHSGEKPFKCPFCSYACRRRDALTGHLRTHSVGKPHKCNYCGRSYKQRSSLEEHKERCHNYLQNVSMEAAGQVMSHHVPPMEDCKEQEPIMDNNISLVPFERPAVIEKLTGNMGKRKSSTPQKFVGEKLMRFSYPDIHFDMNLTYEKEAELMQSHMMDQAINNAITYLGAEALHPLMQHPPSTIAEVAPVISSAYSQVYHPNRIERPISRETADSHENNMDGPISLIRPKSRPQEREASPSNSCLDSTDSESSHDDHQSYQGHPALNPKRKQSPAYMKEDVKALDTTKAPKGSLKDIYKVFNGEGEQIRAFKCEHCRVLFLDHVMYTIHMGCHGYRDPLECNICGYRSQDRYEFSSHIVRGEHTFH

## O=C1CC[C@H](N2Cc3c(OCc4ccc(CN5CCOCC5)cc4)cccc3C2=O)C(=O)N1 [Compound B, 3-(4-((4-(morpholinomethyl)benzyl)oxy)-1-oxoisoindolin-2-yl)piperidine-2,6-dione]
Helios
  Helios expression: without affecting Helios, Pegasus, or β-Actin
Ikaros
  Ikaros levels in PBMC: generally reduces the levels of Ikaros
Aiolos [1]
  Aiolos expression in CD3+ T cells: significantly inhibited Aiolos expression
  Aiolos expression in CD20+ B cells: significantly inhibited Aiolos expression
Aiolos [2]
  Aiolos expression: inhibited the expression of Ikaros and Aiolos
Pegasus
  Pegasus expression: without affecting Helios, Pegasus, or β-Actin

## Nc1cccc2c1CN(C1CCC(=O)NC1=O)C2=O (centres unmarked) [lenalidomide]
DLBCL cell lines
  Effect on non-ABC-DLBCL cells: minimal effect on non-ABC-DLBCL cells
DLBCL cell lines; in vitro
  Proliferation of ABC-DLBCL cells: preferentially suppressed proliferation of ABC-DLBCL cells

## Nc1cccc2c1C(=O)N(C1CCC(=O)NC1=O)C2=O (centres unmarked) [pomalidomide, reference compound]
Aiolos [3]; 10 μM lenalidomide, 1 μM pomalidomide, U266, DF15 MM cells, primary CD3+ T cells, primary CD19+ B cells, cycloheximide treated U266
  Aiolos expression: reduced the expression of Aiolos and Ikaros
Aiolos [3]; MM cells
  Reduction of Aiolos levels compared with other treatment compounds for MM: unique to immunomodulatory compounds provided herein
Aiolos [3]; six MM cell lines (OPM-2, RPMI-8226, LP-1, U266, H929 and JJN3), various concentrations
  Aiolos expression: significantly inhibited Aiolos and Ikaros expression
